Data as given in article PMC9241302, “Identification of 2-(4-N,N-Dimethylaminophenyl)-5-methyl-1-phenethyl-1H-benzimidazole targeting HIV-1 CA capsid protein and inhibiting HIV-1 replication in cellulo” (BMC Pharmacology & Toxicology, 2022).
Where two headings read alike, the source gives them in different places.

Columns and labels:
human red blood cells = test: Red blood cell lysis assay; format: cell-based; settings: Erythrocyte, 24hs
Method: Human blood (blood discarded from the blood bank) collected in sodium citrate solution (3.8%) was centrifuged at 200 × g for 10 min at 4 °C. The plasma supernatant was removed and erythrocytes were suspended in ice-cold PBS. The cells were again centrifuged at 200 × g for 10 min at 4 °C. This procedure was repeated two more times to ensure the removal of any released hemoglobin. Once the supernatant was removed after the last wash, the cells were suspended in PBS to 2% w/v red blood cell solution. […] Ten replicates for each concentration were done and incubated for 24 h at 37 °C before analysis. Complete hemolysis was attained using neat water yielding the 100% control value (positive control). The release of hemoglobin into the supernatant was determined spectrophotometrically at 405 nm using a multiplate reader VarioskanTM Flash Multimode Reader (Thermo Scientific, MA, US). Results are expressed as the percentage of total hemoglobin released in the presence of the compounds. This percentage was calculated using the equation percentage hemolysis (%) = [(A1 − A0)/(Aw)] × 100, where A1 is the absorbance at 405 nm of the test sample at t = 24 h, A0 is the absorbance at 405 nm of the test sample at t = 0 h, and Aw is the absorbance at 405 nm of the positive control (water) at t = 24 h. […] The experiments were done in quintuplicate. AmpB was used as a positive control.

HIV-1 NL4-3 Ba-L = test: microbe, parasite or virus in culture; format: cell-based
Method: Compounds were first dissolved in DMSO to reach a concentration of 20 mM. They were further diluted to a 200 µM working stock and then further diluted to reach a starting concentration of 10 µM in the culture plate. U87-CD4-CCR5 cells were seeded in quadruplicate at 4000 cells/well in a final volume of 100 µL. The next day, 24 µL of the compound was added in serial 1:2 dilutions to the cells. Two hours later, 25 µL of infectious virus (NL4-3 Ba-L) were added to the cells with a TCID50 of 250. AZT at 10 µM was included as an inhibition control. The medium was replenished in the presence of compounds once every 3 to 4 days. The supernatant was collected every 3–4 days and analyzed for virus production by an in-house p24 capture ELISA. IC50 was calculated using “Quest Graph™ IC50 Calculator” (AAT Bioquest, Inc., https://www.aatbio.com/tools/ic50-calculator). Cytotoxicity of the compound was tested on U87-CD4-CCR5 cells in parallel by MTT assay (at the same protocol as in Sect. 3.5 but after 11 days of incubation))[39].

HIV-1 CA = HIV-1 CA (Human immunodeficiency virus type 1 group M subtype B, UniProt P12493); test: HIV-1 CA assembly inhibition assay (absorbance at 340 nm); format: biochemical; parameters: the capsid protein (CA) of the Gag polyprotein; made in house; host or cells: Escherichia coli BL21(DE3) pLysS
Method: The CA assembly assay was performed in a final volume of 70 µL in 384-well plates, with a final concentration of 5 mg/mL of purified recombinant HIV-1 CA in Phosphate/NaCl Buffer (NaH2PO4/Na2HPO4 50 mM, NaCl 100 mM, pH 7.4), as described for FIV CA [27, 31]. Absorbance was measured at 340 nm every 30 s in a multiplate reader VarioskanTM Flash Multimode Reader (Thermo Scientific, MA, US) at 37 °C for 30 min. The compounds were tested at a fixed initial dose of 25 or 50 µM (at 0.5% DMSO [v/v]) by adding 1 µL of the concentrated ligand to the well before starting the measurement. The controls were CA at 5 mg/mL in only 0.5% DMSO [v/v] and CA without DMSO. The criteria to select active compounds were the observation of at least 50% of assembly inhibition at these doses, based on the reduction of the OD value at 340 nm at the plateau value compared to the controls.

[1] = Cytotoxicity in U87-CD4-CCR5 cells (MTT); format: cell-based; settings: human
Method: TZM-bl cells, U87-CD4-CCR5, murine macrophages (J774.1), and THP-1 monocytes (ATCC®TIB-202™) were grown following ATCC recommendations. Cells were seeded in a 96-well plate (10^4 cells in 200 µL culture medium) and incubated at 37 °C in a 5% CO2 atmosphere for 48 h, to allow cell adhesion before drug testing. For stimulation (THP-1 monocytes), cells were incubated with 100 nM of phorbol 12-myristate 13-acetate (PMA) for 48 h. PMA was then washed and cells were left for an additional 24 h, 48 h or11 days (only U87 cells) with growth media containing compound 696 at 10, 25, 50, and 100 µM. A vehicle for control (0.4% DMSO) and negative wells (cells in medium) was used in each test. Cell viability was then assessed by measuring the mitochondria-dependent reduction of MTT (3-(4,5-dimethylthiazol-2-yl)-2,5-diphenyltetrazolium bromide) to formazan. […] After removing the medium, formazan crystals were dissolved in 180 µL of DMSO and 20µL of MTT buffer (0.1 M glycine, 0.1 M NaCl, 0.5 mM EDTA, pH 10.5), and the absorbance at 560 nm was measured. […]
Compounds were first dissolved in DMSO to reach a concentration of 20 mM. […] The supernatant was collected every 3–4 days and analyzed for virus production by an in-house p24 capture ELISA. IC50 was calculated using “Quest Graph™ IC50 Calculator” (AAT Bioquest, Inc., https://www.aatbio.com/tools/ic50-calculator). […]

[2] = Cytotoxicity in human macrophages (PMA-stimulated THP-1 monocytes, MTT); format: cell-based; settings: PMA-stimulated THP-1 monocytes (human macrophages), 48hs
Method: TZM-bl cells, U87-CD4-CCR5, murine macrophages (J774.1), and THP-1 monocytes (ATCC®TIB-202™) were grown following ATCC recommendations. Cells were seeded in a 96-well plate (10^4 cells in 200 µL culture medium) and incubated at 37 °C in a 5% CO2 atmosphere for 48 h, to allow cell adhesion before drug testing. For stimulation (THP-1 monocytes), cells were incubated with 100 nM of phorbol 12-myristate 13-acetate (PMA) for 48 h. […] A vehicle for control (0.4% DMSO) and negative wells (cells in medium) was used in each test. […] After removing the medium, formazan crystals were dissolved in 180 µL of DMSO and 20µL of MTT buffer (0.1 M glycine, 0.1 M NaCl, 0.5 mM EDTA, pH 10.5), and the absorbance at 560 nm was measured. […] Tests were performed in triplicate, in two independent experiments.

Compound `Cc1ccc2c(c1)nc(-c1ccc(N(C)C)cc1)n2CCc1ccccc1` [compound 696, 2-(4-N,N-dimethylaminophenyl)-5-methyl-1-phenethyl-1H-benzimidazole] has an EC50 (human red blood cells) greater than 100000 nM, an EC50/IC50 (HIV-1 NL4-3 Ba-L) greater than 21 and an IC50 (HIV-1 NL4-3 Ba-L; Human immunodeficiency virus 1, U87/CD4/CCR5, 264 h, read-out: IC50, inhibition of HIV-1 replication) of 3 µM. The IC50 (HIV-1 NL4-3 Ba-L; Human immunodeficiency virus 1, U87/CD4/CCR5, read-out: IC50 in U87 (μM)) was 2.3 ± 0.6 µM, the “inhibition of HIV-1 replication (in words)” value (HIV-1 NL4-3 Ba-L; U87-CD4-CCR5 cells, serial 1:2 dilutions from 10 µM) was “clear dose–response inhibition” and the “inhibition of HIV-1 replication” value (HIV-1 NL4-3 Ba-L; U87-CD4-CCR5 cells, two highest concentrations tested, after 11 days) was “more than 80%”. The “selective activity between mammalian cells and antiviral activity” value (HIV-1 NL4-3 Ba-L; cytotoxicity EC50 vs antiviral IC50) was “at least 10 times”, the “Effect in p24 multimerization in vitro” value (HIV-1 CA) was “inhibited” and the “interference with the assembly of HIV-1 CA in vitro” value (HIV-1 CA; compounds at 25 or 50 µM, CA 5 mg/mL, 30 min) was “interference with the assembly”. For the same compound, the “Effect in p24 multimerization in vitro” value (HIV-1 CA; listed as C00002) was “inhibition”, the EC50 at 11 days [1] was greater than 50000 nM and the EC50 at 48 h [2] was greater than 100000 nM.
